From article PMC9775191, “A Subset Screen of the Compounds Australia Scaffold Library Identifies 7-Acylaminodibenzoxazepinones as Potent and Selective Hits for Anti-Giardia Drug Discovery” (Biomedicines, 2022)

tested on: G. duodenalis BRIS/91/HEPU/1279; assay: Primary Giardia screen at 10 µM (live-cell imaging, automated counting); format: cell-based, Giardia duodenalis; details: 24 h
Method in brief: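 One concentration, 10 μM, is screened per compound in singlicate under microaerophilic gas (3% O2, 5% CO2, N2). Inhibition comes from automated image-based counts at 24 and 48 h, relative to 0.2% DMSO controls.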

SMILES	Average % Inhibition 24h
COc1ccc(C2=Nc3ccccc3N(CC(=O)Nc3cccc(F)c3)C(=O)C2)cc1 [SN00791795]	12.6%

same assay, conditions: 24 h, first singlicate assay

SMILES	% Inhibition n=1 24h
COc1ccc(C2=Nc3ccccc3N(CC(=O)Nc3cccc(F)c3)C(=O)C2)cc1 [SN00791795]	25.2%

same assay, conditions: 24 h, re-assessment

SMILES	% Inhibition n=2 24h
COc1ccc(C2=Nc3ccccc3N(CC(=O)Nc3cccc(F)c3)C(=O)C2)cc1 [SN00791795]	0.0%

same assay, conditions: 48 h

SMILES	Average % Inhibition 48h
COc1ccc(C2=Nc3ccccc3N(CC(=O)Nc3cccc(F)c3)C(=O)C2)cc1 [SN00791795]	40.3%

same assay, conditions: 48 h, first singlicate assay

SMILES	% Inhibition n=1 48h
O=C(CN1CCN(Cc2ccccc2)C1=O)NCc1ccc(Cl)cc1 [SN00784814]	0.0%
CC(C)OCCCNC(=O)Cn1c(=O)c(=O)n(Cc2ccncc2)c2ncccc21 [SN00793629]	13.1%
CCCc1noc(Cn2c(-c3ccc(OC)c(OC)c3)noc2=O)n1 [SN00781301]	0.0%
COc1ccc(CC(=O)N2CCN(Cc3nc4cc(C(=O)N5CCCC5)ccc4n3C)CC2)cc1 [SN00795130]	13.8%
CSc1cccc(NC(=O)CN2C(=O)C(C)N=C(c3ccccc3)c3ccccc32)c1 (stereo not drawn) [SN00784896]	0.0%
COCC(=O)N1CCC(Oc2ncccc2C(=O)N(C)C)CC1 [SN00800001]	4.8%
COc1ccc(-c2nnc(-c3cccnc3N3CCN(C(=O)c4cccc(OC)c4)CC3)o2)cc1 [SN00797707]	2.3%
CN1CCN(CCNC(=O)CN2C(=O)C3CCCCN3c3ccc(C(=O)N4CCCC4)cc32)CC1 (stereo not drawn) [SN00792767]	13.0%
Cn1cc(-c2cc3n(n2)CCC(=O)N3CC(=O)N2CCC3(CC2)OCCO3)c2ccccc21 [SN00792412]	10.8%
O=[N+]([O-])c1ncn(Cc2nc(-c3ccc(C(F)(F)F)cc3)no2)n1 [SN00779286]	16.5%
CCOc1ccc(CNC(=O)c2cccc(NC(=O)c3nnc(C4CC4)s3)c2)cc1 [SN00790732]	0.0%
CCC1CCCCN1C(=O)Cn1c(C(=O)OC)cc2occc21 (stereo not drawn) [SN00785479]	8.8%
Cc1cc(C(=O)N2CCCN(c3cccnn3)CC2)c(C)n1C(C)C [SN00771426]	0.0%
Cc1ccc(NC(=O)c2nnc(C3CCCN3C(=O)NC3CCCC3)s2)cc1 (stereo not drawn) [SN00790483]	4.4%
CCCn1c(C2CCN(C(=O)Nc3ccc(F)cc3)CC2)cc(=O)n2nccc12 [SN00798971]	19.1%
COc1ccc(C2=Nc3ccccc3N(CC(=O)Nc3cccc(F)c3)C(=O)C2)cc1 [SN00791795]	54.2%
CSc1ccc(-c2csc(CN3CCN(C(C)=O)CC3)n2)cc1 [SN00778360]	12.1%
CCCc1cc(=O)n2nc(N(C)CC(=O)NCCCN3CCCC3=O)sc2n1 [SN00785642]	4.1%
Cc1oc2ncn(C(C)c3ccccc3)c(=O)c2c1C(=O)Nc1ccc(S(N)(=O)=O)nc1 (stereo not drawn) [SN00788415]	0.0%

SMILES	% Inhibition n=1 48h
CN(C)S(=O)(=O)c1ccc2c(c1)cc(C(=O)NCCCN1CCc3ccccc3C1)n2C [SN00792874]	0.0%
CCOC(=O)c1ccccc1NC(=O)N1Cc2c(sc3c2CCN(C)C3)-n2cccc2C1CC (stereo not drawn) [SN00791557]	10.1%
CCc1ccc(-c2cc(C(=O)N3CCN(c4c(C)n(-c5ccccc5)c(=O)n(C)c4=O)CC3)[nH]n2)cc1 [SN00790031]	0.0%
CCn1c(C)c(C2=CCN(S(=O)(=O)c3ccc(F)cc3)CC2)c2ccccc21 [SN00785221]	17.2%
Cn1c(=O)n(CC(=O)C(C)(C)C)c(=O)c2c1nc1oc(C(C)(C)C)cn12 [SN00779257]	18.6%
CCn1nnc2cc(C(=O)N(C)CC(=O)NCc3cccc(C)c3)ccc21 [SN00789328]	14.4%
Cc1ccc(NC(=O)c2nc3c(=O)n(Cc4ccccc4C)c4cc(C)ccc4n3n2)cc1 [SN00794983]	3.1%
CCN(CC)S(=O)(=O)c1ccc2[nH]cc(C(=O)NCCCN3CCCC3)c(=O)c2c1 [SN00794535]	13.0%
CCC1c2cccn2-c2ccccc2CN1C(=O)NCCc1ccccc1 (stereo not drawn) [SN00791262]	18.8%
O=c1c2cc(-c3cccs3)nn2ccn1Cc1nc(-c2cccc(F)c2)no1 [SN00790579]	8.1%
O=C(Nc1ccc2sc(NS(=O)(=O)c3ccccc3)nc2c1)Nc1ccccc1Cl [SN00797595]	4.6%
CNC(=O)Cc1noc(-c2cccc(-n3cccn3)n2)n1 [SN00781149]	4.9%
Cn1nc2c(c1NC(=O)c1cccc(NC(=O)C(C)(C)C)c1)CCC2 [SN00777576]	0.0%
O=C(COc1ccc(F)cc1)N1CCN(c2nc(CN3CCCC3)cs2)CC1 [SN00799511]	1.1%
CCc1nnc(-c2nnc(NCc3ccc4c(c3)OCO4)c3ccccc23)o1 [SN00800558]	0.0%
COc1c(C(=O)Nc2ccc(C)cc2)oc2ccc(NC(=O)c3ccc(C)s3)cc12 [SN00798811]	19.9%
CCOC(=O)CC(NC(=O)Nc1cc(F)c2[nH]c(=O)ccc2c1)c1ccccc1 (stereo not drawn) [SN00795424]	4.9%
CC1(C(=O)NCc2ccccc2)Cn2c(ccc2-c2ccco2)C(=O)N1CCc1ccco1 (stereo not drawn) [SN00787709]	0.0%
CCOC(=O)c1csc(-n2nc(-c3cccc(OC(C)=O)c3)cc2C(F)(F)F)n1 [SN00789527]	21.7%

SMILES	% Inhibition n=1 48h
CC(C)c1noc(-c2cc(=O)n(CC(=O)N3CCCC3)c3ccccc23)n1 [SN00798718]	0.0%
CN(C[C@@]12CCC[C@H]1N(C)C(=O)CC2)C(=O)c1ccc2c(c1)OCO2 (relative stereo) [SN00801319]	28.7%
CCCNC(=O)Cn1cccc1-c1nc(-c2ccc(Cl)cc2)cs1 [SN00797520]	24.8%
CCc1ccccc1Nc1nc(N)nc(CN2CCCN(S(=O)(=O)c3ccc(C)cc3)CC2)n1 [SN00771296]	10.0%
CN(C)C(=O)CN1CCCN(Cc2ncc(C(C)(C)C)o2)CC1 [SN00778763]	1.9%
CN1C(=O)Cc2cc(-c3csc(N=C(N)N)n3)ccc21 [SN00777034]	0.0%
COc1ccccc1OC(C)C(=O)N1N=C2CCCCC2C1(O)C(F)(F)F (stereo not drawn) [SN00786959]	13.1%
Cc1cccc(C)c1NC(=O)c1cc(-c2ccccc2)nc2c1cnn2Cc1cccnc1 [SN00776937]	17.5%
Cc1cccc(-c2noc(C3CCCN3S(=O)(=O)c3cc(C)c(C)cc3C)n2)c1 (stereo not drawn) [SN00797488]	0.0%
Cc1cc(C(=O)N2CCC(Oc3ccccc3)CC2)[nH]n1 [SN00775052]	4.5%
CC(C)(C)OC(=O)N1CCN(S(=O)(=O)C2CN(C(=O)C3(CN)CCC3)C2)CC1 [SN00782268]	1.1%
O=C(Cn1nnc(-c2cccs2)n1)NCc1ccc(Cl)cc1 [SN00775829]	45.7%
CNC(=O)Nc1ccc(C2(C(=O)Nc3ccc(F)c(C)c3)CCC2)cc1 [SN00795530]	0.0%
CCCN1C(=O)c2cc(C(=O)Nc3ccc(F)cc3)ccc2C1Nc1ccc(F)cc1 (stereo not drawn) [SN00785169]	13.3%
CCNC(=O)C1CCCN1C(=O)c1cccc(NC(=O)c2ccc(Br)cc2)c1 (stereo not drawn) [SN00794777]	0.0%
O=c1ccccn1Cc1nnc(-c2ccc(Br)o2)o1 [SN00773952]	8.9%
COc1ccc(CNC(=O)c2c(C)sc3cc(-c4ccccc4)oc23)cc1 [SN00796298]	29.4%
CC(=O)N1CCCN(Cc2ncc(Cl)n2C)CC1 [SN00771536]	46.7%
CC1CCN(CCCNC(=O)c2ccc(-c3nc(-c4ccccc4)no3)cc2)CC1 [SN00795676]	23.6%

same assay, conditions: 48 h, re-assessment

SMILES	% Inhibition n=2 48h
COc1ccc(C2=Nc3ccccc3N(CC(=O)Nc3cccc(F)c3)C(=O)C2)cc1 [SN00791795]	26.4%

tested on: G. duodenalis BRIS/91/HEPU/1279; assay: Giardia dose response assay, assemblage B; format: cell-based, Giardia duodenalis; details: BRIS/91/HEPU/1279; 48 h; mean ± SD; read-out: IC50 Giardia (48 h)
Protocol: In these assays, compounds were serially diluted (8–12-point doubling dilutions in technical duplicate) in DMSO control media, with all test wells inoculated with parasites (1.5 × 10^4 parasites for BRIS/91/HEPU/1279 and BRIS/91/HEPU/1279m1, or 3 × 10^3 parasites for BRIS/87/HEPU/713). […] All plates were sealed in culture chambers and gassed with 3% O2, 5% CO2 in N2 and incubated at 37 °C for 48 h, with parasites imaged and enumerated at 24 and 48 h. Growth inhibition was calculated as a percentage relative to vehicle controls minus any background as described above and IC50 values were determined using log-linear interpolation as previously described. […] Statistical comparison of IC50 values when required were performed using Student’s t-test.

IC50	SMILES
> 8.6 µM	COc1ccc(C(=O)Nc2ccc3c(c2)Oc2ccccc2C(=O)N3C)cc1OC [SN00797646]

same assay, conditions: Giardia duodenalis, 48 h, BRIS/91/HEPU/1279; 48 h; mean ± SD; read-out: IC50 Giardia (48 h)

IC50	SMILES
> 10 µM	Cc1ccc(C(=O)Nc2ccc3c(c2)Oc2ccccc2C(=O)N3C(C)C)cc1 [SN00797658]
> 10 µM	CC(C)N1C(=O)c2ccccc2Oc2cc(NC(=O)CNC(=O)c3ccco3)ccc21 [SN00797652]
> 10 µM	Cc1ccc(N2CC(C(=O)Nc3ccc4c(c3)Oc3ccccc3C(=O)N4C)CC2=O)cc1C (stereo not drawn) [SN00797636]
> 10 µM	COc1ccc(C(=O)Nc2ccc3c(c2)Oc2ccccc2C(=O)N3C(C)C)c(OC)c1 [SN00797650]
> 10 µM	CN1C(=O)c2ccccc2Oc2cc(NC(=O)CNC(=O)c3ccco3)ccc21 [SN00797638]
> 10 µM	Cc1ccc(NC(=O)c2oc3ccccc3c2NC(=O)c2ccccc2)cc1 [SN00785329]
> 10 µM	CC(C)N1C(=O)c2ccccc2Oc2cc(NC(=O)C3CC(=O)N(c4ccccc4)C3)ccc21 (stereo not drawn) [SN00797655]
> 10 µM	CCn1ccc(C(=O)Nc2ccc3c(c2)Oc2ccccc2C(=O)N3C(C)C)n1 [SN00797664]
> 10 µM	CC(=O)Nc1cccc(C(=O)Nc2ccc3c(c2)Oc2ccccc2C(=O)N3C(C)C)c1C [SN00797651]
5 µM	COc1cc(OC)cc(C(=O)Nc2ccc3c(c2)Oc2ccccc2C(=O)N3C)c1 [SN00797637]
> 10 µM	CN1C(=O)c2ccccc2Oc2cc(NC(=O)C3(c4ccccc4)CC3)ccc21 [SN00797642]
> 10 µM	CC(C)N1C(=O)c2ccccc2Oc2cc(NC(=O)C3CCCCC3)ccc21 [SN00797659]
> 10 µM	Cc1ccc(C(=O)NCC(=O)Nc2ccc3c(c2)Oc2ccccc2C(=O)N3C(C)C)cc1 [SN00797656]
8.6 µM	COc1ccc(C(=O)Nc2ccc3c(c2)Oc2ccccc2C(=O)N3C)cc1OC [SN00797646]
> 10 µM	CC(C)N1C(=O)c2ccccc2Oc2cc(NC(=O)c3ccccc3)ccc21 [SN00797661]
